Article PMC11173677, “Identification and Evaluation of Olive Phenolics in the Context of Amine Oxidase Enzyme Inhibition and Depression: In Silico Modelling and In Vitro Validation” (Molecules, 2024)

Experiments:
BJ cells = test: Viability of BJ cells (CellTiter-Blue Cell Viability Assay); assay type: cell-based, human; conditions: for IC50: Homo sapiens, BJ
Method: The BJ cells were seeded at densities of 10,000 cells in black flat bottom 96-well plates (Nalge Nunc, Penfield, Rochester, NY, USA) and treated with a dose–response of OLC (0–500 μM) and OLP (0–500 μM) for 24 h, 48 h, 72 h, and 7 days at 37 °C, 5% (v/v) CO2. Cell viability was measured using the Cell-Titer Blue® Assay kit (Promega, Madison, WI, USA) according to the manufacturer’s instructions. Cell-Titer Blue reagent was added to each well and incubated for 4 h at 37 °C with 5% (v/v) CO2 before the fluorescence intensity was read using the CLARIOstar Microplate Reader (BMG Labtech, Ortenberg, Germany).
A Nikon Eclipse Ts2 light microscope (Nikon Ti TS2-S-SM, Tokyo, Japan) was used to image untreated and treated BJ cells (OLP or OLC: 0–100 μM) at 4× objective magnification at 20, 44, and 120 h (Figures S1 and S2).

LSD1 = target: T1, LSD1 (Homo sapiens, UniProt O60341); test: LSD1 fluorescence coupling enzyme assay (Reaction Biology Corporation); assay type: biochemical; conditions: Reaction Biology Corp., 30 min pre-incubation, 10 μM histone H3(1-21)K4me2 peptide substrate; read-out: IC50, LSD1 demethylase activity
T1 construct: Reaction Biology Corporation (performed the assay)
Method: The inhibitory activity of HCl 489479, OLC, and OLP was measured using a fluorescence coupling enzyme assay (performed by Reaction Biology Corporation). […] All compounds were pre-incubated for 30 min with the enzyme before the addition of 10 μM histone H3(1-21)K4me2 peptide substrate to start the reaction. Fluorescence was measured using an EnVision Multimode Plate Reader at Ex/Em = 535/590.

purified MAO-A = target: T2, purified MAO-A (Homo sapiens, UniProt P21397); test: MAO-A direct screening assay (inhibitor screening kit); assay type: biochemical; conditions: purified enzyme; read-out: IC50, inhibition of MAO-A
T2 construct: purchased Sigma-Aldrich MAK295
T2 sequence (P21397 1-527): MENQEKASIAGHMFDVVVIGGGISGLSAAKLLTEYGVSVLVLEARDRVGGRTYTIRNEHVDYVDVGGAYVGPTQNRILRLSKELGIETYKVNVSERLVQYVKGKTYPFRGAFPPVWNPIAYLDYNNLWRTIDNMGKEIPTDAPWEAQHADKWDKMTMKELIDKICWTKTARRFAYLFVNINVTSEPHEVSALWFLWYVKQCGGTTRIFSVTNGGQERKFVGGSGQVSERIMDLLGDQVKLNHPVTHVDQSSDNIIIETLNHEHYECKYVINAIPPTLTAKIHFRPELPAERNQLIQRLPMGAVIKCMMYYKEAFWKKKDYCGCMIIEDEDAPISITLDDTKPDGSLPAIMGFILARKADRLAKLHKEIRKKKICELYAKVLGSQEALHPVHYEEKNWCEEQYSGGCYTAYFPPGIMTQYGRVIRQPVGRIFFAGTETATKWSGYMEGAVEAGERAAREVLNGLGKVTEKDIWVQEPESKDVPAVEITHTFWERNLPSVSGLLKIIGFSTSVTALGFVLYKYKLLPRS
Method: (§1) The assays were conducted for MAO-A and MAO-B according to the manufacturer’s instructions.

purified MAO-B = target: T3, purified MAO-B (Homo sapiens, UniProt P27338); test: MAO-B direct screening assay (inhibitor screening kit); assay type: biochemical; conditions: purified enzyme; read-out: IC50, inhibition of MAO-B
T3 construct: purchased Sigma-Aldrich MAK296
T3 sequence (P27338 1-520): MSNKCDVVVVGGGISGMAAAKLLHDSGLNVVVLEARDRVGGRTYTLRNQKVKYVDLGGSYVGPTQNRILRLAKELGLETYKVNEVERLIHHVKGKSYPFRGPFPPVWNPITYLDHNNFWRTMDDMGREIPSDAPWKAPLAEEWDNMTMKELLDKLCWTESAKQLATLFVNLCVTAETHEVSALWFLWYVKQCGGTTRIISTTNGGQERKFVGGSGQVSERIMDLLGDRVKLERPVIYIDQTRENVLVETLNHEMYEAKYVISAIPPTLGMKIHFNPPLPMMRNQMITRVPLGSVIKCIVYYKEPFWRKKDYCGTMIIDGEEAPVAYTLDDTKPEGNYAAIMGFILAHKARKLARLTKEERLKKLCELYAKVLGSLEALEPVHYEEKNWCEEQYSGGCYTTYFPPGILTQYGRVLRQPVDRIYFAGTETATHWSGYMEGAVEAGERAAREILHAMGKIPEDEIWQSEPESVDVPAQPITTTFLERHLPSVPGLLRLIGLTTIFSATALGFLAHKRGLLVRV
Method: as §1

MAO-B = system: T4, MAO-B; test: MAO-B activity assay in hESC-derived neurons stimulated with ATRA; assay type: cell-based, human; conditions: 1 μM ATRA 24 h, then TCP 5 μM, OLC 50 μM or OLP 50 μM for 24 h
T4 construct: endogenous in cells; host or cells: BJ human foreskin fibroblasts stimulated with DEX or HC
Method: An in vitro model of MDD was designed for stem cell-derived neuronal cells through incubation of 1 μM all-trans retinoic acid (Sigma-Aldrich PHR1187, St. Louis, MO, USA). All cell treatments were conducted in duplicate and replicated using independently differentiating neuronal plates.
Activity assays were commercially sourced from BioVision (Abcam, BioVision ab241031, Waltham, MA, USA) and were performed according to manufacturer’s instructions. The treatment groups were plated in duplicate on a black, flat 96-well microplate. The cells were homogenised in assay buffer using a microtube mixer at 4 °C and centrifuged at 10,000× g for 10 min. A Bradford assay was performed to determine the total protein concentration within each cell pellet (200 μg/well for BJ cells, 40 μg/well for hESC-derived neurons). Approximately 40 μL of supernatant was loaded into wells along with 10 μL of either […], or assay buffer for total MAO activity. A H2O2 standard was pipetted as supplied and 50 μL of reaction mix was pipetted into all wells. Using a CLARIOstar Plus Microplate Reader, (BMG Labtech, Ortenberg, Germany), fluorescence was measured kinetically at 25 °C for 60 min with Ex/Em = 535/587 nm.

MAO-A/B expression = test: MAO-A/B protein expression in HC- or DEX-stimulated BJ cells (Western blotting); assay type: cell-based, human; conditions: 10 μM HC 5 days or 100 μM DEX 7 days, then 50 μM compound; Western blot
Method: The BJ cells were subsequently incubated with 10 μM HC or 100 μM DEX to stimulate MAO expression. […] The untreated BJ cells received normal growth medium. The cells were collected, homogenised, and analysed through Western blotting where the expression of MAO-A/B was determined through immunodetection of protein subtypes.

IC50 (LSD1): 0.12 µM
IC50 (purified MAO-A): 0.85 µM
IC50 (purified MAO-B): 32 µM
Structure (SMILES): COC(=O)[C@H](O)CC(=O)OCCc1ccc(O)c(O)c1 [OLP, oleohydroxypyretol]
relative viability of BJ cells at the highest concentration (BJ cells; 500 μM): decreased
proliferation potential of BJ cells (BJ cells; 25, 50, 75 and 100 μM, similar to untreated cells): maintained their proliferation potential
IC50 (BJ cells; 24 h): 220 µM
IC50 (BJ cells; 48 h): 257 µM
toxicity to BJ cells at the concentrations used in further experiments (BJ cells; concentrations used in further experiments (50 μM)): non-toxic
viability of BJ cells at lower concentrations (BJ cells; up to 200 μM): largely maintained
MAO-B activity in hESC-derived neurons (MAO-B): significantly reduced
MAO enzyme expression within BJ cells (MAO-A/B expression): Potent inhibition
